Reference: patent US9211310B2, “Use of a Chinese medicine composition in preparing medicaments for treating secondary prevention of myocardial infarction” (TASLY PHARMACEUTICAL GROUP CO., LTD, priority 2010, dated 2015)

System: patients after acute myocardial infarction
Experiment: Angina pectoris score, total and single (frequency/attack times, duration, pain degree, dose of nitroglycerin), same clinical trial
Assay type: in vivo, human
Design: total angina pectoris score, Md / total angina pectoris score, Mean: scale not given here
Settings: for attack times score, patients (%): Baseline; for distribution of total angina pectoris score: Medium, number of patients / distribution of total angina pectoris score: Medium, percentage of patients / distribution of total angina pectoris score: Mild, number of patients / distribution of total angina pectoris score: Mild, percentage of patients / distribution of total angina pectoris score: Severe, number of patients / distribution of total angina pectoris score: Severe, percentage of patients / patients with dose of nitroglycerin score 0 (%) / patients with dose of nitroglycerin score 1 (%) / patients with dose of nitroglycerin score 2 (%) / patients with dose of nitroglycerin score 4 (%) / patients with dose of nitroglycerin score 6 (%) / total angina pectoris score, Md / total angina pectoris score, Mean / change of total angina pectoris score, Md / change of total angina pectoris score, Mean / patients with change of dose of nitroglycerin score 0 (%) / patients with change of dose of nitroglycerin score 1 (%) / patients with change of dose of nitroglycerin score 2 (%) / patients with change of dose of nitroglycerin score 4 (%) / patients with change of dose of nitroglycerin score 6 (%) / patients with change of dose of nitroglycerin score −1 (%) / patients with change of dose of nitroglycerin score −2 (%) / patients with change of dose of nitroglycerin score −3 (%) / patients with change of dose of nitroglycerin score −4 (%) / patients with change of dose of nitroglycerin score −6 (%) / patients with change of dose of nitroglycerin score −5 (%): FAS
From the text: In order to better understand the present invention, a multi-center, randomized, double-blind, double-dummy and positive drug controlled trial had been conducted. 3508 patients who were in accordance with the diagnostic standards of AMI for 28 days to 2 years and differentiated as Qi deficiency and blood stagnation syndrome by TCM were studied. 0.5 g Chinese medicine composition prepared by the method of EXAMPLE 1 (Coded as QSYQ) was administrated half an hour after meal, 3 times per day. Aspirine was used as a positive drug. The patients were treated for 1 year and observed for 6 months.
They included the overall survival time, angina pectoris score, TCM symptom score and life quality score, where angina pectoris score, TCM symptom score and life quality score were evaluated at randomization, in 1st, 3rd, 6th, 9th, 12th month after treatment and 18th month after follow-up.
Total angina pectoris score was described on every observation period and the change of observation in comparison with baseline. T-test or Wilcoxon rank sum test were used for inter-group comparison. Grade of total score was evaluated on every observation and Wilcoxon rank sum test was used for inter-group comparison. T-test and Pairing signed rank sum test were used for analyzing the change of total score on every observation between groups in comparison with the baseline.
Single angina pectoris score was depicted on every observation time-point and the change of observation in comparison with baseline. Wilcoxon rank sum test was used for inter-group comparison. Pairing signed rank sum test was used for analyzing the change of total score on every observation between groups in comparison with the baseline.
Total angina pectoris score was described on every observation period and the change of observation in comparison with the baseline. T-test or Wilcoxon rank sum test were used for inter-group comparison. Grade of total score was evaluated on every observation and Wilcoxon rank sum test was used for inter-group comparison. T-test and Pairing signed rank sum test were used for analyzing the change of total score on every observation between groups in comparison with the baseline.
Single angina pectoris score was described on every observation time-point and the change of observation in comparison with baseline. Wilcoxon rank sum test was used for inter-group comparison. Pairing signed rank sum test was used for analyzing the change of total score on every observation between groups in comparison with the baseline.

[1] = 1 month after treatment-baseline
[2] = 3 months after treatment-baseline
[3] = 6 months after treatment-baseline
[4] = 9 months after treatment-baseline

SMILES: CC(=O)Oc1ccccc1C(=O)O [Control group, aspirine]
- attack times score, patients (%) (score 1, PP): (8.95%)
- attack times score, patients (%) (score 2, FAS): (53.24%)
- attack times score, patients (%) (score 2, PP): (53.51%)
- attack times score, patients (%) (score 4, FAS): (9.12%)
- attack times score, patients (%) (score 4, PP): (9.55%)
- attack times score, patients (%) (score 6, FAS): (1.03%)
- attack times score, patients (%) (score 6, PP): (1.00%)
- distribution of total angina pectoris score: Medium, number of patients (1 month after treatment): 484
- distribution of total angina pectoris score: Medium, percentage of patients (1 month after treatment): (28.24%)
- distribution of total angina pectoris score: Mild, number of patients (1 month after treatment): 1203
- distribution of total angina pectoris score: Mild, percentage of patients (1 month after treatment): (70.19%)
- distribution of total angina pectoris score: Severe, number of patients (1 month after treatment): 27
- distribution of total angina pectoris score: Severe, percentage of patients (1 month after treatment): (1.58%)
- patients with dose of nitroglycerin score 0 (%) (1 month after treatment): (59.78%)
- patients with dose of nitroglycerin score 1 (%) (1 month after treatment): (0.29%)
- patients with dose of nitroglycerin score 2 (%) (1 month after treatment): (28.94%)
- patients with dose of nitroglycerin score 4 (%) (1 month after treatment): (7.65%)
- patients with dose of nitroglycerin score 6 (%) (1 month after treatment): (3.34%)
- total angina pectoris score, Md (1 month after treatment): 6.00
- total angina pectoris score, Mean (1 month after treatment): 5.92
- change of total angina pectoris score, Md [1]: 0.00
- change of total angina pectoris score, Mean [1]: −1.19
- patients with change of dose of nitroglycerin score 0 (%) [1]: (80.53%)
- patients with change of dose of nitroglycerin score 1 (%) [1]: (0.17%)
- patients with change of dose of nitroglycerin score 2 (%) [1]: (3.92%)
- patients with change of dose of nitroglycerin score 4 (%) [1]: (1.04%)
- patients with change of dose of nitroglycerin score 6 (%) [1]: (0.23%)
- patients with change of dose of nitroglycerin score −1 (%) [1]: (0.00%)
- patients with change of dose of nitroglycerin score −2 (%) [1]: (11.41%)
- patients with change of dose of nitroglycerin score −3 (%) [1]: (0.06%)
- patients with change of dose of nitroglycerin score −4 (%) [1]: (2.13%)
- patients with change of dose of nitroglycerin score −6 (%) [1]: (0.52%)
- distribution of total angina pectoris score: Medium, number of patients (3 months after treatment): 397
- distribution of total angina pectoris score: Medium, percentage of patients (3 months after treatment): (23.97%)
- distribution of total angina pectoris score: Mild, number of patients (3 months after treatment): 1241
- distribution of total angina pectoris score: Mild, percentage of patients (3 months after treatment): (74.94%)
- distribution of total angina pectoris score: Severe, number of patients (3 months after treatment): 18
- distribution of total angina pectoris score: Severe, percentage of patients (3 months after treatment): (1.09%)
- patients with dose of nitroglycerin score 0 (%) (3 months after treatment): (61.98%)
- patients with dose of nitroglycerin score 1 (%) (3 months after treatment): (0.63%)
- patients with dose of nitroglycerin score 2 (%) (3 months after treatment): (29.58%)
- patients with dose of nitroglycerin score 4 (%) (3 months after treatment): (5.23%)
- patients with dose of nitroglycerin score 6 (%) (3 months after treatment): (2.58%)
- total angina pectoris score, Md (3 months after treatment): 6.00
- total angina pectoris score, Mean (3 months after treatment): 5.38
- change of total angina pectoris score, Md [2]: 0.00
- change of total angina pectoris score, Mean [2]: −1.73
- patients with change of dose of nitroglycerin score 0 (%) [2]: (75.23%)
- patients with change of dose of nitroglycerin score 1 (%) [2]: (0.17%)
- patients with change of dose of nitroglycerin score 2 (%) [2]: (4.44%)
- patients with change of dose of nitroglycerin score 4 (%) [2]: (0.69%)
- patients with change of dose of nitroglycerin score 6 (%) [2]: (0.29%)
- patients with change of dose of nitroglycerin score −1 (%) [2]: (0.29%)
- patients with change of dose of nitroglycerin score −2 (%) [2]: (15.15%)
- patients with change of dose of nitroglycerin score −4 (%) [2]: (2.94%)
- patients with change of dose of nitroglycerin score −5 (%) [2]: (0.12%)
- patients with change of dose of nitroglycerin score −6 (%) [2]: (0.69%)
- distribution of total angina pectoris score: Medium, number of patients (6 months after treatment): 309
- distribution of total angina pectoris score: Medium, percentage of patients (6 months after treatment): (19.43%)
- distribution of total angina pectoris score: Mild, number of patients (6 months after treatment): 1273
- distribution of total angina pectoris score: Mild, percentage of patients (6 months after treatment): (80.06%)
- distribution of total angina pectoris score: Severe, number of patients (6 months after treatment): 8
- distribution of total angina pectoris score: Severe, percentage of patients (6 months after treatment): (0.50%)
- patients with dose of nitroglycerin score 0 (%) (6 months after treatment): (65.38%)
- patients with dose of nitroglycerin score 1 (%) (6 months after treatment): (0.86%)
- patients with dose of nitroglycerin score 2 (%) (6 months after treatment): (28.24%)
- patients with dose of nitroglycerin score 4 (%) (6 months after treatment): (3.62%)
- patients with dose of nitroglycerin score 6 (%) (6 months after treatment): (1.89%)
- total angina pectoris score, Md (6 months after treatment): 5.00
- total angina pectoris score, Mean (6 months after treatment): 4.78
- change of total angina pectoris score, Md [3]: 0.00
- change of total angina pectoris score, Mean [3]: −2.34
- patients with change of dose of nitroglycerin score 0 (%) [3]: (70.05%)
- patients with change of dose of nitroglycerin score 1 (%) [3]: (0.40%)
- patients with change of dose of nitroglycerin score 2 (%) [3]: (4.84%)
- patients with change of dose of nitroglycerin score 4 (%) [3]: (0.40%)
- patients with change of dose of nitroglycerin score 6 (%) [3]: (0.35%)
- patients with change of dose of nitroglycerin score −1 (%) [3]: (0.23%)
- patients with change of dose of nitroglycerin score −2 (%) [3]: (18.49%)
- patients with change of dose of nitroglycerin score −3 (%) [3]: (0.00%)
- patients with change of dose of nitroglycerin score −4 (%) [3]: (4.03%)
- patients with change of dose of nitroglycerin score −5 (%) [3]: (0.17%)
- patients with change of dose of nitroglycerin score −6 (%) [3]: (1.04%)
- distribution of total angina pectoris score: Medium, number of patients (9 months after treatment): 244
- distribution of total angina pectoris score: Medium, percentage of patients (9 months after treatment): (15.97%)
- distribution of total angina pectoris score: Mild, number of patients (9 months after treatment): 1280
- distribution of total angina pectoris score: Mild, percentage of patients (9 months after treatment): (83.77%)
- distribution of total angina pectoris score: Severe, number of patients (9 months after treatment): 4
- distribution of total angina pectoris score: Severe, percentage of patients (9 months after treatment): (0.26%)
- patients with dose of nitroglycerin score 0 (%) (9 months after treatment): (67.11%)
- patients with dose of nitroglycerin score 1 (%) (9 months after treatment): (1.03%)
- patients with dose of nitroglycerin score 2 (%) (9 months after treatment): (27.73%)
- patients with dose of nitroglycerin score 4 (%) (9 months after treatment): (2.41%)
- patients with dose of nitroglycerin score 6 (%) (9 months after treatment): (1.72%)
- total angina pectoris score, Md (9 months after treatment): 5.00
- total angina pectoris score, Mean (9 months after treatment): 4.39
- change of total angina pectoris score, Md [4]: −1.00
- change of total angina pectoris score, Mean [4]: −2.72
- patients with change of dose of nitroglycerin score 0 (%) [4]: (67.45%)
- patients with change of dose of nitroglycerin score 1 (%) [4]: (0.35%)
- patients with change of dose of nitroglycerin score 2 (%) [4]: (4.84%)
- patients with change of dose of nitroglycerin score 4 (%) [4]: (0.46%)
- patients with change of dose of nitroglycerin score 6 (%) [4]: (0.35%)
- patients with change of dose of nitroglycerin score −1 (%) [4]: (0.46%)
- patients with change of dose of nitroglycerin score −2 (%) [4]: (20.16%)
- patients with change of dose of nitroglycerin score −3 (%) [4]: (0.12%)
- patients with change of dose of nitroglycerin score −4 (%) [4]: (4.26%)
- patients with change of dose of nitroglycerin score −5 (%) [4]: (0.17%)
- patients with change of dose of nitroglycerin score −6 (%) [4]: (1.38%)
- distribution of total angina pectoris score: Medium, number of patients (12 months after treatment): 176
- distribution of total angina pectoris score: Medium, percentage of patients (12 months after treatment): (11.96%)
- distribution of total angina pectoris score: Mild, number of patients (12 months after treatment): 1294
- distribution of total angina pectoris score: Mild, percentage of patients (12 months after treatment): (87.91%)
- distribution of total angina pectoris score: Severe, number of patients (12 months after treatment): 2
- distribution of total angina pectoris score: Severe, percentage of patients (12 months after treatment): (0.14%)
- patients with dose of nitroglycerin score 0 (%) (12 months after treatment): (71.58%)
- patients with dose of nitroglycerin score 1 (%) (12 months after treatment): (1.09%)
- patients with dose of nitroglycerin score 2 (%) (12 months after treatment): (23.59%)
- patients with dose of nitroglycerin score 4 (%) (12 months after treatment): (2.07%)
- patients with dose of nitroglycerin score 6 (%) (12 months after treatment): (1.66%)
- total angina pectoris score, Md (12 months after treatment): 0.00
- total angina pectoris score, Mean (12 months after treatment): 3.83
